Test results reported in patent US9604923B2 (H. LEE MOFFITT CANCER CENTER AND RESEARCH INSTITUTE, INC., priority 2006, dated 2017).

Key:
STAT3 = STAT3 (Mus musculus, UniProt P42227); assay: Inhibition of STAT3 dimerization, EMSA assay; type: binding; set-up: endogenous in cells; host or cells: nuclear extracts per the general EMSA method
Stat3:3 = target: T1, Stat3:3 (Mus musculus, UniProt P42227); assay: STATs DNA-binding activity in vitro, EMSA with hSIE probe; details: for IC50: Table 4, read-out: IC50 values for the inhibition of STATs DNA-binding activity in vitro, Stat3:3; for selectivity among STAT family members, in words: nuclear extracts of EGF-stimulated NIH3T3/hEGFR
T1 construct: endogenous in cells; host or cells: NIH3T3/v-Src or EGF-stimulated NIH3T3/hEGFR mouse fibroblasts, nuclear extracts

Stat1:1 = target: T2, Stat1:1 (Mus musculus, UniProt P42225); assay: STATs DNA-binding activity in vitro, EMSA; details: Table 4; read-out: IC50 values for the inhibition of STATs DNA-binding activity in vitro, Stat1:1
T2 construct: endogenous in cells; host or cells: EGF-stimulated NIH3T3/hEGFR mouse fibroblasts, nuclear extracts
T2 sequence (P42225 2-749 limits assumed): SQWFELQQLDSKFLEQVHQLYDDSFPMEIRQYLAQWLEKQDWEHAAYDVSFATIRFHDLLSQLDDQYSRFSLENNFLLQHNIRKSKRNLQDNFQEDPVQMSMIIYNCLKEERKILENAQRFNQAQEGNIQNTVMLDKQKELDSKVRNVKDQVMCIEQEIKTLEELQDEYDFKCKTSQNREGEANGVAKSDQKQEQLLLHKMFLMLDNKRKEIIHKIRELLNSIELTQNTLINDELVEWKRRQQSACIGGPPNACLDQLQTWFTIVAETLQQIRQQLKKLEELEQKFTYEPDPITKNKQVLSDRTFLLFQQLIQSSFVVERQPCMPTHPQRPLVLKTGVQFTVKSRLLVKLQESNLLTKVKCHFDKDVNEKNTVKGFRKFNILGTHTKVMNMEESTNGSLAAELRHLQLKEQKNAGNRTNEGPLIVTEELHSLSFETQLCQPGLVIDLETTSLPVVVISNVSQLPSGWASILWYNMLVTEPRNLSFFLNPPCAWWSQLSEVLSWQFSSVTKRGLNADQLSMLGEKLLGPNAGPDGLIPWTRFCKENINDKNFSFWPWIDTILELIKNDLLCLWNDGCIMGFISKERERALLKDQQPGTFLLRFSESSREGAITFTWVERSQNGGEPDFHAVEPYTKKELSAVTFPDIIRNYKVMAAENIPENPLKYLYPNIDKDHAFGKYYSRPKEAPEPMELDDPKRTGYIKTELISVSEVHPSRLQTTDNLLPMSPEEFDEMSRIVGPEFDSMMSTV

Stat1:3 = target: T3, Stat1:3 (Mus musculus, UniProt P42227); assay: STATs DNA-binding activity in vitro, EMSA with hSIE probe; details: Table 4; read-out: IC50 values for the inhibition of STATs DNA-binding activity in vitro, Stat1:3
T3 construct: endogenous in cells; host or cells: EGF-stimulated NIH3T3/hEGFR mouse fibroblasts, nuclear extracts

Stat5:5 = assay: STATs DNA-binding activity in vitro, EMSA with MGFe probe; set-up: species or system mouse; details: Table 4; read-out: IC50 values for the inhibition of STATs DNA-binding activity in vitro, Stat5:5

T1 sequence (P42227 2-770 limits assumed): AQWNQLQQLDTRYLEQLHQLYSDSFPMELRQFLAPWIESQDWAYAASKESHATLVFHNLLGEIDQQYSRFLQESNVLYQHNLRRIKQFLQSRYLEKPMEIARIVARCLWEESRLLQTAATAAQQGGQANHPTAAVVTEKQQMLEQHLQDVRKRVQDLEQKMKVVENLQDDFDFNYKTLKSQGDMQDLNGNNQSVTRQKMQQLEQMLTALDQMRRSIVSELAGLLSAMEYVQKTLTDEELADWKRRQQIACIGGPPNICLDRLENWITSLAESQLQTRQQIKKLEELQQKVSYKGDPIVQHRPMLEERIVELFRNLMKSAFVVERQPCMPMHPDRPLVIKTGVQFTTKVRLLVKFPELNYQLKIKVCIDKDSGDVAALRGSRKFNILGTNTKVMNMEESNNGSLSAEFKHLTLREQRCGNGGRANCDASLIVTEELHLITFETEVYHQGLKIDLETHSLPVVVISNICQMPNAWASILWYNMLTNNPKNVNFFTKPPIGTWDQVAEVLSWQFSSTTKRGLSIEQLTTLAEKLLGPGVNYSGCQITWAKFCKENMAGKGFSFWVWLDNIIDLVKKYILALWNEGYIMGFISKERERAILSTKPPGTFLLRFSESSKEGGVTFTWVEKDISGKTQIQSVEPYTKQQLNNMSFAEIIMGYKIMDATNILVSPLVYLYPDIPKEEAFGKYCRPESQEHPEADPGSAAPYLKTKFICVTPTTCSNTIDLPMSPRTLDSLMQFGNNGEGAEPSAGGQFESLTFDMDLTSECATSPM
Chain of STAT3 (P42227 2-770 limits assumed): as above
T3 sequence (P42227 2-770 limits assumed): as above

IC50 (STAT3) | inhibition of Stat3 DNA-binding activity, in words (Stat3:3) | IC50 (Stat3:3) | IC50 (Stat1:1) | IC50 (Stat1:3) | IC50 (Stat5:5) | SMILES | selectivity among STAT family members, in words (Stat3:3)
> 500 µM |  |  |  |  |  | Cc1ccc(S(=O)(=O)OCC(=O)Nc2ccccc2)cc1 [Compound 6, 2-Oxo-2-(phenylamino)ethyl 4-methylbenzenesulfonate] | 
> 500 µM |  |  |  |  |  | Cc1ccc(S(=O)(=O)OCC(=O)Nc2ccc(C#N)cc2)cc1 [Compound 7, 2-(4-Cyanophenylamino)-2-oxoethyl 4-methylbenzenesulfonate] | 
> 500 µM |  |  |  |  |  | Cc1ccc(S(=O)(=O)OCC(=O)Nc2ccc(S(N)(=O)=O)cc2)cc1 [Compound 8, 2-Oxo-2-(4-sulfamoylphenylamino)ethyl 4-methylbenzenesulfonate] | 
> 500 µM |  |  |  |  |  | Cc1ccc(S(=O)(=O)NCC(=O)Nc2ccc(C(=O)O)c(O)c2)cc1 [Compound 11] | 
> 500 µM |  |  |  |  |  | O=C(COS(=O)(=O)c1ccc(-c2ccc(Cl)cc2)cc1)Nc1ccc(C(=O)O)c(O)c1 [Compound 15, 4-(2-(4′-Chlorobiphenyl-4-ylsulfonyloxy)acetamido)-2-hydroxybenzoic acid] | 
> 500 µM |  |  |  |  |  | O=C(COS(=O)(=O)c1ccc(-c2ccccc2)cc1)Nc1ccc(C(=O)O)cc1 [Compound 20, 4-(2-(Biphenyl-4-ylsulfonyloxy)acetamido)benzoic acid] | 
> 500 µM |  |  |  |  |  | O=C(COCc1ccccc1)Nc1ccc(C(=O)O)cc1 [Compound 22, 4-(2-(Benzyloxy)acetamido)benzoic acid] | 
> 500 µM |  |  |  |  |  | O=C(COCc1ccccc1)Nc1ccc(C(=O)O)c(O)c1 [Compound 23, 4-(2-(Benzyloxy)acetamido)-2-hydroxybenzoic acid] | 
< 500 µM |  |  |  |  |  | O=C(CCS(=O)(=O)c1ccccc1)Nc1ccc(C(=O)O)c(O)c1 [Compound 24, 4-(3-(Phenylsulfonyl)propanamido)-2-hydroxybenzoic acid] | 
< 500 µM |  |  |  |  |  | O=C(CCS(=O)(=O)c1ccccc1)Nc1ccc(C(=O)O)cc1 [Compound 25, 4-(3-(Phenylsulfonyl)propanamido)benzoic acid] | 
> 500 µM |  |  |  |  |  | O=C(CCCc1ccccc1)Nc1ccc(C(=O)O)cc1 [Compound 27, 4-(4-Phenylbutanamido)benzoic acid] | 
> 500 µM |  |  |  |  |  | N#Cc1ccc(NC(=O)CNS(=O)(=O)c2ccc(-c3ccccc3)cc2)cc1 [Compound 28, 2-(Biphenyl-4-ylsulfonamido)-N-(4-cyanophenyl)acetamide] | 
> 500 µM |  |  |  |  |  | O=C(CNS(=O)(=O)c1ccc(-c2ccccc2)cc1)Nc1ccc(S(=O)(=O)O)cc1 [Compound 29, 4-(2-(Biphenyl-4-ylsulfonamido)acetamido)benzenesulfonic acid] | 
> 500 µM |  |  |  |  |  | NS(=O)(=O)c1ccc(NC(=O)CNS(=O)(=O)c2ccc(-c3ccccc3)cc2)cc1 [Compound 30, 2-(Biphenyl-4-ylsulfonamido)-N-(4-sulfamoylphenyl)acetamide] | 
< 500 µM |  |  |  |  |  | Cc1ccc(S(=O)(=O)NCC(CC(=O)Nc2ccccc2)c2ccc(Cl)cc2)cc1 (centres unmarked) [Compound 36, 3-(4-Chlorophenyl)-4-(4-methylphenylsulfonamido)-N-phenylbutanamide] | 
> 500 µM |  |  |  |  |  | CCOC(=O)c1ccc(NC(=O)CCc2ccc3ccccc3c2)cc1 [Compound 69, Ethyl 4-(3-(naphthalen-2-yl)propanamido)benzoate] | 
> 500 µM |  |  |  |  |  | O=C(CCc1ccccc1)Nc1ccc(C(=O)O)cc1 [Compound 72, 4-(3-Phenylpropanamido)benzoic acid] | 
> 500 µM |  |  |  |  |  | O=C(CCc1ccccc1)Nc1ccc(C(=O)O)c(O)c1 [Compound 73, 4-(3-Phenylpropanamido)-2-hydroxybenzoic acid] | 

IC50 (STAT3) | inhibition of Stat3 DNA-binding activity, in words (Stat3:3) | IC50 (Stat3:3) | IC50 (Stat1:1) | IC50 (Stat1:3) | IC50 (Stat5:5) | SMILES | selectivity among STAT family members, in words (Stat3:3)
< 500 µM |  |  |  |  |  | COC(=O)c1ccc2cc(C(=O)Nc3cc(C(=O)O)ccc3O)ccc2c1 [Compound 75, 4-hydroxy-3-(6-(methoxycarbonyl)-2-naphthamido)benzoic acid] | 
 | notable potent inhibitors | 80 µM | 105 µM | 145 µM | 221 µM | O=C1C=C(Nc2ccc(S(=O)(=O)Nc3ccccn3)cc2)C(=O)C=C1Nc1ccc(S(=O)(=O)Nc2ccccn2)cc1 [NSC 11421] | 
 |  | 245 µM | 267 µM | 256 µM | 235 µM | O=C1c2ccccc2-c2ccc(N(Cc3ccc([N+](=O)[O-])cc3)Cc3ccc([N+](=O)[O-])cc3)cc21 [NSC 24056] | 
 |  | 85 µM | 95 µM | 68 µM | 125 µM | C=CC1=C(C)/C(=C/c2[nH]c(Cc3[nH]c(/C=C4\NC(=O)C(C)=C4C=C)c(C)c3CCC(=O)O)c(CCC(=O)O)c2C)NC1=O [NSC 26685] | 
 | Potent inhibition | 65 µM | 197 µM | 86 µM | 88 µM | O=C(O)c1cc(O)c(O)c(OC(=O)c2cc(O)c(O)c(O)c2CNc2ccc3cc(S(=O)(=O)O)cc(S(=O)(=O)O)c3c2)c1 [NSC 42067] | preferentially inhibit Stat3 and Stat5 over that of Stat1
 |  | 292 µM | 300 µM | 300 µM | > 300 µM | CC(CCC(=O)O)(c1ccc(OC(=O)Nc2ccccc2Cl)cc1)c1ccc(OC(=O)Nc2ccccc2Cl)cc1 [NSC 51926] | 
 |  | 295 µM | 225 µM | 258 µM | 285 µM | O=C(Nc1cccc(NC(=O)C(=O)O)c1)Oc1ccccc1 [NSC 71906] | 
 | Potent inhibition | 160 µM | 72 µM | 104 µM | > 300 µM | Cc1cc(N=Nc2ccc(-c3ccc(N=Nc4ccc(O)c(C(=O)O)c4)cc3)cc2)c(N)c(N=Nc2cc(C(=O)O)ccc2Cl)c1N.[Na+] [NSC 75912] | preferentially inhibits Stat1 over Stat3 or Stat5
 |  | 276 µM | 113 µM | 263 µM | > 300 µM | Cc1cc(N=Nc2ccc(-c3ccc(N=Nc4ccc(O)c(C(=O)O)c4)cc3)cc2)c(N)c(N=Nc2cccc(OCC(=O)O)c2)c1N [NSC 75914] | 
 |  | > 300 µM | > 300 µM | > 300 µM | > 300 µM | O=C(OC1COC(n2c(=O)oc3cc([N+](=O)[O-])ccc32)C(OC(=O)c2ccccc2)C1OC(=O)c1ccccc1)c1ccccc1 (centres unmarked) [NSC 87849] | 
 |  | > 300 µM | > 300 µM | > 300 µM | > 300 µM | CN=C(Nc1ccccn1)c1ccc(NC(=O)c2ccc(C(=O)Nc3ccc(C(=NC)Nc4ccccn4)cc3)cc2)cc1 [NSC 90438] | 
 |  | 275 µM | > 300 µM | > 300 µM | 288 µM | CC(C)NC(=O)c1cc(NC(=O)c2ccc(C(=O)Nc3cc(C(=O)NC(C)C)cc(C4=NCCN4)c3)cc2)cc(C2=NCCN2)c1 [NSC 101595] | 
 |  | 202 µM | > 300 µM | 292 µM | > 300 µM | O=C(O)c1cc(N=C2C=CC(=C(c3ccccc3)c3ccc(Nc4ccc(Cl)c(C(=O)O)c4)cc3)C=C2)ccc1Cl [NSC 117907] | 
 |  | 225 µM | 253 µM | 256 µM | 255 µM | O=C(/C=C/c1ccccc1)NC(=S)Nc1ccc(C(=O)O)cc1 [NSC 205965] | 
 |  | 220 µM | > 300 µM | 290 µM | > 300 µM | CCCCCCCCCCCC(=O)NC(=S)Nc1ccc(C(=O)O)cc1 [NSC 216360] | 
 | notable potent inhibitors | 25 µM | 50 µM | 40 µM | 25 µM | CCOc1cccc2c(NCCCCCCCCNc3c4ccccc4nc4c(OCC)cccc34)c3ccccc3nc12 [NSC 263435] | 
 |  | 245 µM | 205 µM | 250 µM | 250 µM | N#Cc1cc([N+](=O)[O-])ccc1NC(=O)C(=O)Nn1c(=S)[nH]c2ccccc2c1=O [NSC 645885] | 
 |  | 295 µM | > 300 µM | > 300 µM | > 300 µM | CC(=O)NNc1nc(C)c(C(/C=C/c2cccc([N+](=O)[O-])c2)=N/NC(=S)NN)s1 [NSC 647608] | 

SMILES | IC50 (STAT3) | inhibition of Stat3 DNA-binding activity, in words (Stat3:3) | IC50 (Stat3:3) | IC50 (Stat1:1) | IC50 (Stat1:3) | IC50 (Stat5:5) | selectivity among STAT family members, in words (Stat3:3)
O=C(CNS(=O)(=O)c1ccc(-c2ccc(Cl)cc2)cc1)Nc1ccc(C(=O)O)cc1 [Compound 31] | > 500 µM |  |  |  |  |  | 
O=C(CNS(=O)(=O)c1ccc(-c2ccccc2)cc1)Nc1ccc(C(=O)O)cc1 [Compound 32] | > 500 µM |  |  |  |  |  | 
